From patent US9611251B2, “Substituted piperidine compounds and their use as orexin receptor modulators” (Janssen Pharmaceutica NV, priority 2013, dated 2017) come the findings set out here.

As usually defined, the Ki is the dissociation constant of the complex between target and ligand, obtained from inhibition or displacement.

In one test the target is human orexin 1 receptor (Homo sapiens, UniProt O43613). Nature of the test: Human orexin 1 receptor radioligand binding. As to conditions: human orexin 1 receptor radioligand binding; averages of 2-20 runs; read-out: hOX1 Ki.
Another test deals with human orexin 2 receptor (Homo sapiens (Human), UniProt O43614). Nature of the test: Human orexin 2 receptor radioligand binding ([3H]-EMPA). As to conditions: averages of 2-20 runs, read-out: hOX2 Ki. The method in brief: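 Competition binding using homogenized HEK293 cells stably expressing human orexin 2 receptor, [3H]-EMPA at 2 nM final and ≤0.1% DMSO; nonspecific binding set with 10 μM almorexant. Filter-bound radioactivity counted by scintillation; one-site competition IC50 converted to Ki using pre-determined Kd, compounds run in triplicate.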

The next test concerns the target rat orexin 1 receptor (Rattus norvegicus, UniProt P56718). Nature of the test: Rat orexin 1 receptor radioligand binding. As to conditions: rat orexin 1 receptor radioligand binding; averages of 2-20 runs; read-out: rOX1 Ki. The method, boiled down: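 Cell-suspension competition binding used 4 nM final tritiated thiazolyl-pyrrolidinyl-methanone radioligand in PBS, ≤0.1% DMSO, with 10 µM almorexant defining nonspecific binding. Filter-bound radioactivity was counted in triplicate. IC50 came from one-site competition fits and was converted to Ki using the predetermined Kd.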

human orexin 2 receptor, sequence (O43614 whole entry): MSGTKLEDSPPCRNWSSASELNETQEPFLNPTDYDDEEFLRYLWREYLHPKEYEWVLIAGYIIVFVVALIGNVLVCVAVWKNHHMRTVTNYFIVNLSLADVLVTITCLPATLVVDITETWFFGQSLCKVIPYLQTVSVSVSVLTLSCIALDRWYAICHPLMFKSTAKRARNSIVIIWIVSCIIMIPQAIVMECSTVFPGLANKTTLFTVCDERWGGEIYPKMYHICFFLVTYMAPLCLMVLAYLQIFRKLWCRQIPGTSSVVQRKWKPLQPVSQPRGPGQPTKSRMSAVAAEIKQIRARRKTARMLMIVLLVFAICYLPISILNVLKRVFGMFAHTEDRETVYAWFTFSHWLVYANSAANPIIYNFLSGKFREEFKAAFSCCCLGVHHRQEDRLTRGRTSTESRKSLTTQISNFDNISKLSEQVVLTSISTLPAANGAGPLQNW

For `Cc1ccc(-n2nccn2)c(C(=O)N2CCC[C@@H](Oc3ccc(Cl)cn3)[C@@H]2C)n1` [Example 215, ((2S,3R)-3-((5-chloropyridin-2-yl)oxy)-2-methylpiperidin-1-yl)(6-methyl-3-(2H-1,2,3-triazol-2-yl)pyridin-2-yl)methanone], the Ki on human orexin 1 receptor worked out at 35 nM; on human orexin 2 receptor, 374 nM; at rat orexin 1 receptor, 12 nM.
